Assay results taken from publication PMC8011376 (Journal of the American Chemical Society, 2020).

Key:
Assay in all cases: MIC determination, broth microdilution
[1] = tested on: A. baumannii; assay type: cell-based, Acinetobacter baumannii; settings: listed as measured MICs for polymyxin-supplemented assays
[2] = tested on: P. aeruginosa; assay type: cell-based, Pseudomonas aeruginosa; settings: listed as measured MICs for polymyxin-supplemented assays
[3] = tested on: E. coli DH5α; assay type: cell-based, Escherichia coli; settings: listed as measured MICs for polymyxin-supplemented assays
[4] = tested on: E. cloacae ATCC 13047; assay type: cell-based, Enterobacter cloacae
[5] = tested on: K. pneumoniae; assay type: cell-based, Klebsiella pneumoniae; settings: listed as measured MICs for polymyxin-supplemented assays

Question: Which results are given for polymyxin?
Answer: MIC of polymyxin [1]: 0.3 mg/L; MIC of polymyxin [2]: 0.15 mg/L; MIC of polymyxin [3]: 0.0625 mg/L; MIC of polymyxin ([4]; E. cloacae ATCC 13047, strain not susceptible (note)): > 64 mg/L; MIC of polymyxin ([4]; E. cloacae, value in the list of measured MICs): 2 mg/L; MIC of polymyxin [5]: 0.15 mg/L
